How the values were obtained:
[1] = 25° C., pH range of 4 to 7, literature data; cited from earlier work
[2] = cited from earlier work
[3] = type: physicochemical
From the text: The low solubility in water of certain N-hydroxyurea 5- and/or 12-lipoxygenase inhibitors prevents these beneficial agents from broader use than they would otherwise enjoy if aqueous formulations could be prepared at therapeutically effective concentrations. […] In addition to its poor solubility, zileuton and likely other N-hydroxyurea lipoxygenase inhibitors are predicted to be chemically unstable in aqueous solution for storage at room temperature for prolonged periods of time [Insert Reference]. Degradation is consistent with specific hydronium- or water-catalyzed hydrolysis to afford the carbamic acid, which immediately loses carbon dioxide to generate the hydroxylamine as shown below. [drawing 2]
No buffer catalysis has been observed for zileuton. Using acid- and water-catalyzed rate constants at 25° C., the pseudo first-order rate constant is determined to be approximately 7.8×10^−5 h^−1 over a pH range of about 3.5 to about 7.5. The shelf life at 10% drug loss is calculated to be 57.3 days at an optimal pH of 5.6.
Based on literature data [Alvarez, F J; Slade, R T. Kinetics and mechanism of degradation of zileuton, a potent 5-lipoxygenase inhibitor. Pharm. Res., 1992, 9(11): 1465-1473], zileuton in solution is expected to have adequate short-term stability (at least 1 month at 25° C.) over a pH range of 4 to 7.

pseudo first-order rate constant (degradation) [3]: approximately 7.8×10^−5 h^−1 | shelf life at 10% drug loss ([3]; optimal pH of 5.6, 25° C.): 57.3 days
SMILES: CC(c1cc2ccccc2s1)N(O)C(N)=O (racemic) [zileuton, ((±)-1-(1-benzo[b]thien-2-ylethyl)-1-hydroxyurea]
short-term stability in solution [1]: at least 1 month | solubility in acetonitrile ([2]; acetonitrile): slightly soluble | solubility in hexane and water ([2]; hexane and water): practically insoluble | solubility in methanol and ethanol ([2]; methanol and ethanol): soluble | water solubility ([2]; water, 25° C.): 80 to 140 µg/mL
